Results published in patent publication US10300056B2, “CGRP receptor antagonists” (Heptares Therapeutics Limited, priority 2015, dated 2019).
≈ marks a conversion by molar mass, not a printed value. Counter-ions that a name gives are not always drawn. Like-named read-outs stand apart in the source and are kept apart here.

How the values were obtained:
[1] = biological target: Human CGRP receptors (consisting of CRLR and RAMP1) (Homo sapiens (Human), UniProt O60894+Q16602); experiment: Radioligand binding assay (3H-telcagepant displacement); conditions: Sf21 membranes, 0.5 nM 3H-telcagepant, Cheng-Prussoff
Description: Human Calcitonin Receptor Like Receptor (CRLR) and human RAMP1 were cloned into Invitrogen's (ThermoFisher Scientific, UK) pFastBac dual expression vector. Transposition of CRLR/RAMP1 DNA was performed using Invitrogen's Bac-to-Bac Baculovirus Expression Systems. P0 baculovirus was generated by transfecting SF9 cells with bacmid DNA using Cellfectin® II transfection reagent (ThermoFisher Scientific, UK, catalog number 10362-100). Following P0 generation P1 virus was then generated ready for large scale infection and membrane preparation. Sf21 cells were grown in expression medium ESF921 (Expression Systems, USA, catalog number 96-001-01) supplemented with 10% heat-inactivated FBS and 1% Pen/Strep and were infected at a cell density of 2.5×10^6 cells/mL and an MOI of 2. Expression was carried out over 48 h in a shaking incubator set at 27° C. The cell culture was centrifuged at 2,500 rcf for 10 min at 4° C. The pellets were resuspended in cold PBS supplemented with Roche's Complete EDTA-free protease inhibitor cocktail tablets (Roche Applied Sciences, catalog number 05056489001), 1 mM PMSF and 1 mM EDTA. The resuspended cell paste was then centrifuged at 3,273 rcf for 12 min at 4° C. The supernatant was discarded and the pellet frozen at −80° C. The cell pellet from a 4 L culture was resuspended in buffer containing 50 mM Hepes pH 7.5, 150 mM NaCl, 8 Roche EDTA-free protease inhibitor cocktail tablets and 1 mM PMSF. The suspension was left stirring at rt for 1 h and then homogenised for 90 s at 9,500 rpm using a VDI 25 (VWR, USA) homogeniser. The cells were then lysed using a Microfluidizer processor M-110L Pneumatic (Microfluidics, USA). After lysis, the mixture was homogenised for 90 s at 9,500 rpm and then centrifuged at 335 rcf for 10 min. The supernatant was then further ultra-centrifuged at 42,000 rpm for 90 min. After ultra-centrifugation, the supernatant was discarded and the pellet was resuspended in 50 mL (25 mL for each 2 L culture) of buffer containing 50 mM Hepes pH 7.5, 150 mM NaCl, 3 Roche EDTA-free protease inhibitor cocktail tablets and 1 mM PMSF. The suspension was then homogenised for 90 s at 9,500 rpm. The resulting membranes were then stored at −80° C.
Human CGRP receptors expressed (consisting of CRLR and RAMP1) in insect Sf21 cell membrane homogenates were re-suspended in the binding buffer (10 mM HEPES, pH 7.4, 5 mM MgCl2, 0.2% BSA) to a final assay concentration of 0.6 μg protein per well. Saturation isotherms were determined by the addition of various concentrations of ^3H-telcagepant (Ho et al, The Lancet, 2008, 372, 2115) (in a total reaction volume of 250 μL) for 60 min at rt. At the end of the incubation, membranes were filtered onto a unifilter, a 96-well white microplate with bonded GF/B filter pre-incubated with 0.5% PEI, with a Tomtec cell harvester and washed 5 times with distilled water. Non-specific binding (NSB) was measured in the presence of 10 nM MK-3207 hydrochloride (CAS No. 957116-20-0). Radioactivity on the filter was counted (1 min) on a microbeta counter after addition of 50 μL of scintillation fluid. For inhibition experiments, membranes were incubated with 0.5 nM ^3H-telcagepant and 10 concentrations of the inhibitory compound (0.001-10 μM). IC50 values were derived from the inhibition curve and the affinity constant (Ki) values were calculated using the Cheng-Prussoff equation (Cheng et al, Biochem. Pharmacol. 1973, 22, 3099-3108).

[2] = biological target: CGRP receptor (Homo sapiens (Human), UniProt O60894+Q16602); experiment: cAMP functional assay (HTRF) in SK-N-MC cells; type: cell-based; conditions: read-out: pkb average (converted)
Description: cAMP production following receptor activation was determined using the Homogeneous Time-Resolved Fluorescence (HTRF) cAMP dynamic-2 assay (Cisbio, France). The human neuroblastoma cell line SK-N-MC endogenously expressing the human CGRP receptor was seeded at a density of 12,500 cells/well in solid walled 96 well half area plates (Costar, Catalog Number 3688, Corning Life Sciences, Germany). After 16 h incubation at 37° C. media was removed and cells were incubated at 37° C. for 30 min in serum free media containing 500 μM IBMX (Tocris, Abingdon, UK, Catalog Number 2845) and increasing concentrations of test antagonist. Following this cells were challenged with an EC80 concentration of human CGRP (0.3 nM) for a further 30 min at 37° C. and then cAMP production was determined as manufacturer's instructions before plates were read on a PheraStar fluorescence plate reader (BMG LabTech, Germany). IC50 values were derived from the inhibition curve. The pIC50 values (where pIC50=−log10 IC50) were converted to a functional pKb value using a modified Cheng-Prussoff equation where Kd=agonist EC50 and L hot=agonist challenge concentration. The pKb values of certain compounds of the invention are detailed in Table 3.

[3] = biological target: CGRP receptor ectodomain complex (Homo sapiens (Human), UniProt O60894+Q16602); experiment: Receptor kinetic profiling by surface plasmon resonance (Biacore T200); conditions: SPR; for receptor dissociation (off-rate) compared with olcegepant or MK-3207: in words; for CGRP t1/2: dissociation half-life, 25° C.
Description: Kinetic analyses were run on a Biacore T200 instrument (GE Healthcare Bio-Sciences AB, Uppsala, Sweden) at 25° C. using 0.05 mM EDTA, PBS (10 mM phosphate buffer, 2.7 mM KCl, 137 mM NaCl) pH 7.4, 0.005% v/v Surfactant P20, 5% DMSO as the running buffer. […] The chip was loaded with Ni^2+ and carboxyl groups of the dextran matrix were activated by EDC/NHS. The receptor ectodomain complex (100 nM in running buffer) was then injected and immobilised via the His-tag and amino groups. Two fold dilution series of each compound (five concentrations, in the range 25-40 nM) were injected. Blank-subtracted data were fitted to a 1:1 interaction model to obtain kinetic parameters which are expressed in Table 4 as dissociation half-life (t1/2=(ln 2/off-rate (kd)/60).

[4] = Thermodynamic solubility profiling; type: physicochemical; conditions: aqueous buffer, thermodynamic from solid
Description: A 50 mM DMSO stock solution of test compound was prepared, and from this, a working solution of 1 mM was prepared by dilution with DMSO. The UV absorbance of working solution was scanned from 220 nm to 1000 nm to identify the wavelength maxima of test compound. The 1 mM working solution was then serially diluted in DMSO to different concentrations to determine linearity/calibration curve. […] The resulting solution was then kept on a RotoSpin shaker at 50 rpm for 24 h at rt before the solution was filtered using 0.45 micron PVDF injector filters in order to remove the insoluble fraction of the compound. Subsequently, 150 uL of the filtrate is taken for quantification using a UV spectrophotometer, acquiring the optical density of standard solutions and test compound at the same wavelength maxima. From the optical density of test compound the thermodynamic solubility is calculated using the linearity/calibration curve and expressed as micromolar (μM). Solubility profiles of certain compounds of the invention are detailed in Table 7.

[5] = PBS buffer pH 7.4, 24 h at rt, read-out: Thermodynamic solubility pH 7.4
[6] = Sodium Phosphate Buffer pH 6.0, 24 h at rt, read-out: Thermodynamic solubility pH 6

Sequence of CGRP receptor ectodomain complex (Q16602 23-139): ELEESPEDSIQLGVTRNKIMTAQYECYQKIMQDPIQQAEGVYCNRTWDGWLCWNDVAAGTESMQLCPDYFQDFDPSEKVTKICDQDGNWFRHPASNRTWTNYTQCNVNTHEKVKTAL
Sequence of CGRP receptor ectodomain complex (O60894 27-118): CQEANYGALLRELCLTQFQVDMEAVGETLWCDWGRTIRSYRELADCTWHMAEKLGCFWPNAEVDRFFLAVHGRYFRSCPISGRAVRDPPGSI
Sequence of CGRP receptor (Q16602 23-461): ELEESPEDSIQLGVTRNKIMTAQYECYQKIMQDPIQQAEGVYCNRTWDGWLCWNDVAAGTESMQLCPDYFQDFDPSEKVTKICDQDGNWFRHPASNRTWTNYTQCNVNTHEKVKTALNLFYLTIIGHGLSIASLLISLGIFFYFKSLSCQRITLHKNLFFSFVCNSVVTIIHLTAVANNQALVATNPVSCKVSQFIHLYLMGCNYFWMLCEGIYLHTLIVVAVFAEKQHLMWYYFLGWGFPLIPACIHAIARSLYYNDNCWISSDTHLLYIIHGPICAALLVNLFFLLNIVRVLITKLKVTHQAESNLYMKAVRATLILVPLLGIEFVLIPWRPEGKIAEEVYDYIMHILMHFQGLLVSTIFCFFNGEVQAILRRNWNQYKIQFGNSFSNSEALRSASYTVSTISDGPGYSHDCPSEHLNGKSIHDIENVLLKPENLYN
Sequence of CGRP receptor (O60894 27-148): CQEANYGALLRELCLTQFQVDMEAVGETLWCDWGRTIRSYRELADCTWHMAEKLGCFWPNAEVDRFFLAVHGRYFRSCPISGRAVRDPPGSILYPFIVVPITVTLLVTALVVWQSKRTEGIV
Sequence of Human CGRP receptors (consisting of CRLR and RAMP1) (Q16602 23-461): as the sequence (Q16602 23-461) above
Sequence of Human CGRP receptors (consisting of CRLR and RAMP1) (O60894 27-148): as the sequence (O60894 27-148) above

| SMILES | pKi average [1] | Kb [2] [nM] | receptor dissociation (off-rate) compared with olcegepant or MK-3207 [3] | CGRP t1/2 [3] [min] | solubility thermodynamic at 24 h [4, 5] [µM] | solubility thermodynamic at 24 h [4, 6] [µM] |
| --- | --- | --- | --- | --- | --- | --- |
| Cc1cc(C[C@@H](NC(=O)N2CCC(c3cc4ccccc4[nH]c3=O)CC2)C(=O)N[C@@H](CC2CCN(C(=O)OC(C)(C)C)CC2)C(=O)N2CCN(c3ccncc3)CC2)cc2cn[nH]c12 [Example 2, tert-butyl 4-{(2S)-2-{[(2R)-3-(7-methyl-1H-indazol-5-yl)-2-({[4-(2-oxo-1,2-dihydroquinolin-3-yl)piperidin-1-yl]carbonyl}amino)propanoyl]amino}-3-oxo-3-[4-(pyridin-4-yl)piperazin-1-yl]propyl}piperidine-1-carboxylate] | 10.0 | 0.2 | slow receptor dissociation | 78 |  |  |
| Cc1cc(C[C@@H](NC(=O)N2CCC(c3cc4ccccc4[nH]c3=O)CC2)C(=O)N[C@@H](CC2CCNCC2)C(=O)N2CCN(c3ccncc3)CC2)cc2cn[nH]c12 [Example 3, N-[(2R)-3-(7-methyl-1H-indazol-5-yl)-1-oxo-1-({(2S)-1-oxo-3-(piperidin-4-yl)-1-[4-(pyridin-4-yl)piperazin-1-yl]propan-2-yl}amino)propan-2-yl]-4-(2-oxo-1,2-dihydroquinolin-3-yl)piperidine-1-carboxamide] | 10.1 | 0.158 |  | 4 | 509 (≈ 393 µg/mL) | 10 (≈ 7.73 µg/mL) |
| CCCN1CCC(C[C@H](NC(=O)[C@@H](Cc2cc(C)c3[nH]ncc3c2)NC(=O)N2CCC(c3cc4ccccc4[nH]c3=O)CC2)C(=O)N2CCN(c3ccncc3)CC2)CC1 [Example 4, N-[(2R)-3-(7-methyl-1H-indazol-5-yl)-1-oxo-1-({(2S)-1-oxo-3-(1-propylpiperidin-4-yl)-1-[4-(pyridin-4-yl)piperazin-1-yl]propan-2-yl}amino)propan-2-yl]-4-(2-oxo-1,2-dihydroquinolin-3-yl)piperidine-1-carboxamide] | 10.4 | 0.02 | slow receptor dissociation | 39 |  |  |
| CCCCC(=O)N1CCC(C[C@H](NC(=O)[C@@H](Cc2cc(C)c3[nH]ncc3c2)NC(=O)N2CCC(c3cc4ccccc4[nH]c3=O)CC2)C(=O)N2CCN(c3ccncc3)CC2)CC1 [Example 6, N-[(2R)-3-(7-methyl-1H-indazol-5-yl)-1-oxo-1-({(2S)-1-oxo-3-(1-pentanoylpiperidin-4-yl)-1-[4-(pyridin-4-yl)piperazin-1-yl]propan-2-yl}amino)propan-2-yl]-4-(2-oxo-1,2-dihydroquinolin-3-yl)piperidine-1-carboxamide] | 10.0 | 0.1 | slow receptor dissociation | 20 |  |  |
| CCN1CCC(C[C@H](NC(=O)[C@@H](Cc2cc(C)c3[nH]ncc3c2)NC(=O)N2CCC(c3cc4ccccc4[nH]c3=O)CC2)C(=O)N2CCN(c3ccncc3)CC2)CC1 [Example 7, N-[(2R)-1-({(2S)-3-(1-ethylpiperidin-4-yl)-1-oxo-1-[4-(pyridin-4-yl)piperazin-1-yl]propan-2-yl}amino)-3-(7-methyl-1H-indazol-5-yl)-1-oxopropan-2-yl]-4-(2-oxo-1,2-dihydroquinolin-3-yl)piperidine-1-carboxamide] | 10.4 | 0.0251 | slow receptor dissociation | 36 |  |  |
| O=C(N[C@@H](CC1CCNCC1)C(=O)N1CCN(c2ccncc2)CC1)[C@@H](Cc1cc(Br)c(O)c(Br)c1)NC(=O)N1CCC(N2Cc3ccccc3NC2=O)CC1 [Example 9, 3,5-dibromo-Nα-{[4-(2-oxo-1,4-dihydroquinazolin-3(2H)-yl)piperidin-1-yl]carbonyl}-N-{(2S)-1-oxo-3-(piperidin-4-yl)-1-[4-(pyridin-4-yl)piperazin-1-yl]propan-2-yl}-D-tyrosinamide] | 10.1 | 0.00631 | slow receptor dissociation | 32 |  |  |
| Cc1cc(C[C@@H](NC(=O)N2CCC(n3c(=O)[nH]c4ncccc43)CC2)C(=O)N[C@@H](CC2CCN(CCN(C)C)CC2)C(=O)N2CCN(c3ccncc3)CC2)cc2cn[nH]c12 [Example 12, N-[(2R)-1-({(2S)-3-{1-[2-(dimethylamino)ethyl]piperidin-4-yl}-1-oxo-1-[4-(pyridin-4-yl)piperazin-1-yl]propan-2-yl}amino)-3-(7-methyl-1H-indazol-5-yl)-1-oxopropan-2-yl]-4-(2-oxo-2,3-dihydro-1H-imidazo[4,5-b]pyridin-1-yl)piperidine-1-carboxamide] |  | 0.0251 |  | 101 | 1960 (≈ 1630 µg/mL) | 1650 (≈ 1370 µg/mL) |
| Cc1cc(C[C@@H](NC(=O)N2CCC(n3c(=O)[nH]c4ncccc43)CC2)C(=O)N[C@@H](CC2CCN(C(=O)CC(=O)O)CC2)C(=O)N2CCN(c3ccncc3)CC2)cc2cn[nH]c12 [Example 13, 3-(4-{(2S)-2-{[(2R)-3-(7-methyl-1H-indazol-5-yl)-2-({[4-(2-oxo-2,3-dihydro-1H-imidazo[4,5-b]pyridin-1-yl)piperidin-1-yl]carbonyl}amino)propanoyl]amino}-3-oxo-3-[4-(pyridin-4-yl)piperazin-1-yl]propyl}piperidin-1-yl)-3-oxopropanoic Acid, ammonium Salt] | 10.0 | 0.126 |  |  |  |  |
